Patent US9556165B2 (priority 2012, dated 2017)
In brackets after ≈: the same amount, converted by molar mass.

Key:
Assay in all cases: MIC determination, broth microdilution (CLSI)
Type in all cases: cell-based
[1] = test system: E. coli ATCC25922; details: Escherichia coli, ATCC25922, strain 1
[2] = test system: K. pneumoniae 60; details: Klebsiella pneumoniae, 60, strain 2
[3] = test system: E. cloacae 34654; details: Enterobacter cloacae, 34654, strain 3
[4] = test system: C. freundii K21/3034; details: Citrobacter freundii, K21/3034, strain 4
[5] = test system: M. morganii 126/3048; details: Morganella morganii, 126/3048, strain 5
[6] = test system: P. aeruginosa PAO1; details: Pseudomonas aeruginosa, PAO1, strain 6
[7] = test system: P. aeruginosa 2297 (AmpC wt); details: Pseudomonas aeruginosa, strain 7
[8] = test system: P. aeruginosa 2297-con (AmpC derepressed); details: Pseudomonas aeruginosa, read-out: strain 8 MIC, strain 8
[9] = test system: A. baumannii ATCC15308; details: Acinetobacter baumannii, ATCC15308, strain 9
[10] = test system: S. maltophilia ICB7569; details: Stenotrophomonas maltophilia, ICB7569, strain 10
[11] = test system: S. pneumoniae 113; details: Streptococcus pneumoniae, 113, strain 14; read-out: strain 14 MIC
[12] = test system: E. coli J62; details: Escherichia coli, J62, strain 17; read-out: strain 17 MIC
[13] = test system: E. coli J62-TEM-3; details: Escherichia coli, J62TEM3, read-out: strain 18 MIC, strain 18
[14] = test system: strain 19
[15] = test system: strain 20
[16] = test system: strain 21

## CC1(C)[C@H](NC(=O)/C(=N\OCCOc2ccc(C(=N)N)c(O)c2)c2csc(N)n2)C(=O)N1OS(=O)(=O)O [Example 1, (2Z)-2-(2-Amino-1,3-thiazol-4-yl)-2-{[2-(4-carbamimidoyl-3-hydroxyphenoxy)ethoxy]imino}-N-[(3S)-2,2-dimethyl-4-oxo-1-(sulfooxy)azetidin-3-yl]ethanamide]
[1]
  MIC: 0.25 µg/mL (≈ 0.448 µM)
[2]
  MIC: 0.25 µg/mL (≈ 0.448 µM)
[3]
  MIC: 0.5 µg/mL (≈ 0.897 µM)
[4]
  MIC: 0.5 µg/mL (≈ 0.897 µM)
[5]
  MIC: 0.125 µg/mL (≈ 0.224 µM)
[6]
  MIC: 4 µg/mL (≈ 7.17 µM)
[7]
  MIC: 8 µg/mL (≈ 14.3 µM)
[8]
  MIC: 4 µg/mL (≈ 7.17 µM)
[9]
  MIC: 8 µg/mL (≈ 14.3 µM)
[10]
  MIC: 8 µg/mL (≈ 14.3 µM)
[11]
  MIC: 16 µg/mL (≈ 28.7 µM)
[12]
  MIC: 0.25 µg/mL (≈ 0.448 µM)
[13]
  MIC: 16 µg/mL (≈ 28.7 µM)
[14]
  MIC: 0.25 µg/mL (≈ 0.448 µM)
[15]
  MIC: 0.25 µg/mL (≈ 0.448 µM)
[16]
  MIC: 0.25 µg/mL (≈ 0.448 µM)

## C[C@H]1[C@H](NC(=O)/C(=N\OCCSc2ccc(C(=N)N)cc2)c2csc(N)n2)C(=O)N1S(=O)(=O)O [Example 6, (2S,3S)-3-{[(2Z)-2-(2-Amino-1,3-thiazol-4-yl)-2-({2-[(4-carbamimidoylphenyl)sulfanyl]ethoxy}imino)acetyl]amino}-2-methyl-4-oxoazetidine-1-sulfonic acid]
[1]
  MIC: 0.125 µg/mL (≈ 0.237 µM)
[2]
  MIC: 0.25 µg/mL (≈ 0.474 µM)
[3]
  MIC: 0.125 µg/mL (≈ 0.237 µM)
[4]
  MIC: ≤ 0.125 µg/mL
[5]
  MIC: ≤ 0.125 µg/mL
[6]
  MIC: 4 µg/mL (≈ 7.58 µM)
[7]
  MIC: 8 µg/mL (≈ 15.2 µM)
[8]
  MIC: 16 µg/mL (≈ 30.3 µM)
[9]
  MIC: 1 µg/mL (≈ 1.9 µM)
[10]
  MIC: 32 µg/mL (≈ 60.7 µM)
[11]
  MIC: 4 µg/mL (≈ 7.58 µM)
[12]
  MIC: 0.25 µg/mL (≈ 0.474 µM)
[13]
  MIC: 16 µg/mL (≈ 30.3 µM)
[14]
  MIC: 0.25 µg/mL (≈ 0.474 µM)
[15]
  MIC: 0.25 µg/mL (≈ 0.474 µM)
[16]
  MIC: 0.25 µg/mL (≈ 0.474 µM)

## C[C@@H]1[C@H](NC(=O)/C(=N\OCCOc2ccc(C(=N)N)cc2)c2csc(N)n2)C(=O)N1OS(=O)(=O)O [Example 10, (2Z)-2-(2-Amino-1,3-thiazol-4-yl)-2-{[2-(4-carbamimidoylphenoxy)ethoxy]imino}-N-[(2R,3S)-2-methyl-4-oxo-1-(sulfooxy)azetidin-3-yl]ethanamide]
[1]
  MIC: 0.5 µg/mL (≈ 0.948 µM)
[2]
  MIC: 2 µg/mL (≈ 3.79 µM)
[3]
  MIC: 1 µg/mL (≈ 1.9 µM)
[4]
  MIC: 1 µg/mL (≈ 1.9 µM)
[5]
  MIC: 4 µg/mL (≈ 7.58 µM)
[6]
  MIC: 8 µg/mL (≈ 15.2 µM)
[7]
  MIC: 8 µg/mL (≈ 15.2 µM)
[9]
  MIC: 8 µg/mL (≈ 15.2 µM)
[11]
  MIC: 2 µg/mL (≈ 3.79 µM)
[12]
  MIC: 0.5 µg/mL (≈ 0.948 µM)
[14]
  MIC: 0.5 µg/mL (≈ 0.948 µM)
[15]
  MIC: 0.5 µg/mL (≈ 0.948 µM)
[16]
  MIC: 0.5 µg/mL (≈ 0.948 µM)

## C[C@H]1[C@H](NC(=O)/C(=N\OCCOc2ccc(C(=N)N)cc2F)c2csc(N)n2)C(=O)N1S(=O)(=O)O [Example 19, (2S,3S)-3-{[(2Z)-2-(2-Amino-1,3-thiazol-4-yl)-2-{[2-(4-carbamimidoyl-2-fluorophenoxy)ethoxy]imino}acetyl]amino}-2-methyl-4-oxoazetidine-1-sulfonic acid]
[1]
  MIC: 0.5 µg/mL (≈ 0.944 µM)
[2]
  MIC: 0.125 µg/mL (≈ 0.236 µM)
[3]
  MIC: 0.5 µg/mL (≈ 0.944 µM)
[4]
  MIC: 0.5 µg/mL (≈ 0.944 µM)
[5]
  MIC: 0.25 µg/mL (≈ 0.472 µM)
[6]
  MIC: 8 µg/mL (≈ 15.1 µM)
[7]
  MIC: 16 µg/mL (≈ 30.2 µM)
[9]
  MIC: 4 µg/mL (≈ 7.55 µM)
[11]
  MIC: 16 µg/mL (≈ 30.2 µM)
[12]
  MIC: 0.5 µg/mL (≈ 0.944 µM)
[13]
  MIC: 32 µg/mL (≈ 60.4 µM)
[14]
  MIC: 0.5 µg/mL (≈ 0.944 µM)
[15]
  MIC: 1 µg/mL (≈ 1.89 µM)
[16]
  MIC: 1 µg/mL (≈ 1.89 µM)
